Data reported in patent US6856913B1, “Decentralized patient management method” (Swineburn Limited, priority 1998, dated 2005).

Tested on: children diagnosed with ADHD
Test: SSVEP phase/latency change during the Continuous Performance Task (CPT A-X) before and one hour after stimulant medication
Format: in vivo, human
Conditions: one hour after medication vs before
Method: An example of the invention will now be briefly described with reference to FIGS. 15 and 16. The method was used on patients who are children diagnosed with Attention Deficit […] Disorder (ADHD).
Children diagnosed with ADHD were tested to examine the effects of stimulant medication (methylphenidate or Ritalin) on the amplitude and phase of the steady state visually evoked potential (SSVEP). The children performed two cognitive tasks before the stimulant medication was administered and then repeat the tasks one hour after stimulant medication was administered.
The first task was a low demand vigilance task where the patients were required to press a micro switch on the predictable appearance of the number “5” in the repeated sequence “1, 2, 3, 4, 5”. The second task was known as the A-X version of the Continuous Performance Task (CPT A-X). In this more demanding task, patients were required to press a micro switch on the appearance of the letter “X” if and only if it has been preceded by the letter “A”.
FIGS. 15 and 16 illustrate the spatial distribution of the difference between the mean SSVEP phase, evaluated over the entire CPT A-X task before medication, and the point in time corresponding to the disappearance of the letter “A” in the CPT A-X task after medication.

SMILES: COC(=O)C(c1ccccc1)C1CCCCN1 (centres unmarked) [methylphenidate]
- change in SSVEP phase (latency) at prefrontal sites (FIG. 15, child diagnosed with ADHD and responding to the stimulant medication): large SSVEP latency reduction at prefrontal sites
- change in SSVEP phase (latency) at prefrontal sites (FIG. 16, different child diagnosed with ADHD and not responding to stimulant medication): absence of SSVEP latency reduction at prefrontal sites
